The nature of the assay: Inhibitory concentration against interleukin-2 binding. Details: species or system Homo sapiens.

The structures appear in SMILES notation.

For 33 compounds, IC50 results are on record in ChEMBL document CHEMBL1144437, “Identification of nonpeptidic small-molecule inhibitors of interleukin-2” (Bioorg Med Chem Lett, 2005).

Broadly, the IC50 is the concentration needed to halve the response being measured. A higher IC50 goes with weaker potency in that assay. Turning to `Cn1nc(-c2cccc(Cl)c2Cl)cc1C1CCN(C(=O)NCC[C@H](N=C(N)N)C(=O)N2CCCC2)CC1`, the IC50 is 20 µM.
With `CC(C)[C@@H](CCNS(=O)(=O)N1CCC(c2cc(-c3cccc(Cl)c3Cl)nn2C)CC1)N=C(N)N` the figure was more than 100 µM.
The same measure for `Cn1nc(-c2cccc(Cl)c2Cl)cc1C1CCN(C(=O)NCCCN=C(N)N)CC1`: 29 µM.
With `Cn1nc(-c2cccc(Cl)c2Cl)cc1C1CCN(S(=O)(=O)NCCCN=C(N)N)CC1` the figure was 23 µM.
In turn, `Cn1nc(-c2cccc(Cl)c2Cl)cc1C1CCN(S(=O)(=O)NCCN=C(N)N)CC1` gave an IC50 of more than 100 µM.
The same measure for `CC(C)C[C@H](CCNS(=O)(=O)N1CCC(c2cc(-c3cccc(Cl)c3Cl)nn2C)CC1)N=C(N)N`: 30 µM; for `C[C@H](CCNS(=O)(=O)N1CCC(c2cc(-c3cccc(Cl)c3Cl)nn2C)CC1)N=C(N)N`: 90 µM; for `CC(C)N(CCCNS(=O)(=O)N1CCC(c2cc(-c3cccc(Cl)c3Cl)nn2C)CC1)C(=N)N`: 48 µM.
With `CC(C)C[C@H](CCNC(=O)N1CCC(c2cc(-c3cccc(Cl)c3Cl)nn2C)CC1)N=C(N)N` the figure was 23 µM; with `CC(C)[C@@H](CCNC(=O)N1CCC(c2cc(-c3cccc(Cl)c3Cl)nn2C)CC1)N=C(N)N`, more than 100 µM.
As to `Cn1nc(-c2cccc(Cl)c2Cl)cc1C1CCN(C(=O)NCC[C@H](N=C(N)N)C(=O)O)CC1`, the IC50 was more than 100 µM.
As for `CCCN(CCCNC(=O)N1CCC(c2cc(-c3cccc(Cl)c3Cl)nn2C)CC1)C(=N)N`, the IC50 is more than 100 µM.
The same measure for `COC(=O)[C@H](CCNC(=O)N1CCC(c2cc(-c3cccc(Cl)c3Cl)nn2C)CC1)N=C(N)N`: more than 100 µM; for `CC(C)C[C@@H](NC(=N)N)C(=O)NCC(=O)N1CCC(c2cc(-c3ccc(OCc4ccc(C(=O)O)o4)c(Cl)c3Cl)nn2C)CC1`: 0.06 µM; for `CC(C)N(CCCNC(=O)N1CCC(c2cc(-c3cccc(Cl)c3Cl)nn2C)CC1)C(=N)N`: more than 100 µM.
The same measure for `CN(CCCNS(=O)(=O)N1CCC(c2cc(-c3ccc(OCc4ccc(C(=O)O)o4)c(Cl)c3Cl)nn2C)CC1)C(=N)N`: 0.6 µM.
With `CN(C)C(=O)[C@H](CCNC(=O)N1CCC(c2cc(-c3cccc(Cl)c3Cl)nn2C)CC1)N=C(N)N`, the IC50 came out at 7 µM.
The same measure for `Cn1nc(-c2cccc(Cl)c2Cl)cc1C1CCN(S(=O)(=O)NCCCCN=C(N)N)CC1`: more than 100 µM; for `CN(CCCNC(=O)N1CCC(c2cc(-c3cccc(Cl)c3Cl)nn2C)CC1)C(=N)N`: 16 µM.
`C[C@H](CCNC(=O)N1CCC(c2cc(-c3cccc(Cl)c3Cl)nn2C)CC1)N=C(N)N`: the IC50 was 57 µM.
The same measure for `CNC(=O)[C@H](CCNC(=O)N1CCC(c2cc(-c3cccc(Cl)c3Cl)nn2C)CC1)N=C(N)N`: more than 100 µM; for `Cn1nc(-c2cccc(Cl)c2Cl)cc1C1CCN(C(=O)NCC[C@H](N=C(N)N)C(=O)N2CCC3CCCCC3C2)CC1` (stereo partly drawn): more than 100 µM; for `CN(CCCNS(=O)(=O)N1CCC(c2cc(-c3cccc(Cl)c3Cl)nn2C)CC1)C(=N)N`: 14 µM.
With `CCCN(CCCNS(=O)(=O)N1CCC(c2cc(-c3cccc(Cl)c3Cl)nn2C)CC1)C(=N)N` the figure was 32 µM.
The same measure for `Cn1nc(-c2cccc(Cl)c2Cl)cc1C1CCN(C(=O)NCCCCN=C(N)N)CC1`: more than 100 µM; for `CCN(CC1CC1)C(=O)[C@H](CCNC(=O)N1CCC(c2cc(-c3cccc(Cl)c3Cl)nn2C)CC1)N=C(N)N`: 60 µM; for `CC(C)[C@H](CCNS(=O)(=O)N1CCC(c2cc(-c3cccc(Cl)c3Cl)nn2C)CC1)N=C(N)N`: 76 µM.
In turn, `CC(C)[C@H](CCNC(=O)N1CCC(c2cc(-c3cccc(Cl)c3Cl)nn2C)CC1)N=C(N)N` gave an IC50 of 55 µM.
With `CCN(CC)C(=O)[C@H](CCNC(=O)N1CCC(c2cc(-c3cccc(Cl)c3Cl)nn2C)CC1)N=C(N)N` the figure was 11 µM; with `COC(=O)[C@H](Cc1ccc(C#Cc2ccccc2)cc1)NC(=O)C[C@H]1CCCN(C(=N)N)C1`, 3 µM.
With `N=C(N)N[C@@H](C(=O)NCC(=O)N1CCC(c2cc(-c3cccc(Cl)c3Cl)n[nH]2)CC1)C1CCCCC1` the figure was 6 µM; with `Cn1nc(-c2cccc(Cl)c2Cl)cc1C1CCN(C(=O)NCCN=C(N)N)CC1`, more than 100 µM; with `CC(=O)N1CCN(C(=O)[C@H](CCNC(=O)N2CCC(c3cc(-c4cccc(Cl)c4Cl)nn3C)CC2)N=C(N)N)CC1`, 60 µM.
